Activity calls are given as the source filed them.
Tests used:
[1] = HEK-293T viability loss after treatment – luminescence, T-cell screen hits, cytotoxicity control for TCR NF-kB inhibitor project, dose response (AID 489026); format: functional, cell-based;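 note: cells exposed to compound about 14 hours before the viability readout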
[2] = alpha-synuclein stem-loop luciferase translation blockers – H4 neuroglioma cells, luminescence, confirmation (AID 1988); format: functional, cell-based
[3] = Luminescence Cell-Based Dose Response HTS to Identify Inhibitors of 5'UTR Stem-Loop Driven Prion Protein mRNA Translation in H4 Neuroglioblastoma Cells. [Related pubchem assays: 1827 (Project Summary), 1813 (Primary HTS)]; format: functional
BJ [4] = assay: BJ-TERT fibroblast viability loss – cell-based, RAS-independent, luminescence, dose response (AID 1933); format: functional; conditions: Homo sapiens
[5] = DRD fibroblast viability loss – cell-based, non-viral oncogenic, luminescence, dose response (AID 1934); format: functional; conditions: Homo sapiens
BJ [6] = assay: BJ-TERT-LT-ST fibroblast viability loss – cell-based, RAS-independent, luminescence, dose response (AID 1935); format: functional; conditions: Homo sapiens;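 note: BJ fibroblasts immortalized with TERT plus LT and ST oncogenes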
[7] = luciferase reporter signal suppression in cells – H4 neuroglioma cells, luminescence, dose response (AID 1990); format: functional, cell-based
[8] = Luminescence Cell-Based Dose Retest to Confirm Inhibitors of Cancer Stem Cells. [Related pubchem assays (depositor defined):AID2717, AID2721]; format: functional; conditions: Homo sapiens
[9] = A cytotoxicity screen of small molecule inhibitors of the PhoP region in Salmonella typhi identified in the primary screen. [Related pubchem assays: 1850, 1864, 1985 ]; format: functional
[10] = molecular target: Alkaline phosphatase, placental type (Homo sapiens, UniProt P05187); assay: human placental alkaline phosphatase inhibition – biochemical, luminescence, confirmation (AID 1512); format: functional
[11] = molecular target: T1, Alkaline phosphatase, tissue-nonspecific isozyme (Homo sapiens, UniProt P05186); assay: potency against alkaline phosphatase TNAP – biochemical, luminescent, dose response, SAR follow-up (AID 1056)
T1 sequence (P05186 whole entry): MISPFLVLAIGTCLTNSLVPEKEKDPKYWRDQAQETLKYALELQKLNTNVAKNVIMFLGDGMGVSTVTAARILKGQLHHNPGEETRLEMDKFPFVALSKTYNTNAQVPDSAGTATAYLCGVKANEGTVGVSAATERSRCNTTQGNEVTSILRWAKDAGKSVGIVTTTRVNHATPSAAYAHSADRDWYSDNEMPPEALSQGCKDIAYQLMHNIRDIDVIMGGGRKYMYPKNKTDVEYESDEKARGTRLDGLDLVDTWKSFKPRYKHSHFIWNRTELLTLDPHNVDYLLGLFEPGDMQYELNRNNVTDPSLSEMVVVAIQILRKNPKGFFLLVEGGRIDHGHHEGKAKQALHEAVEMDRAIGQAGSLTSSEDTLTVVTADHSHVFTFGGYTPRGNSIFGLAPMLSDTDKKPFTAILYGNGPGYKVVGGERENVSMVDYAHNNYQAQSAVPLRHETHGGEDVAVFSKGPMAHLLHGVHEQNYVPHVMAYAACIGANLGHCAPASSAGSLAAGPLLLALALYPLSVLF

Vero [12] = assay: cells; format: functional, cell-based; conditions: Chlorocebus sabaeus
Genome polyprotein = Genome polyprotein (dengue virus type 2, UniProt P29990); assay: flavivirus cap methylation enzyme inhibition – biochemical, confirmation dose response, primary screen (AID 588689); format: functional
[13] = molecular target: T2, Short transient receptor potential channel 4 (Mus musculus, UniProt Q9QUQ5); assay: block of DAMGO-driven TRPC4 calcium entry – cell-based, HEK293 TRPC4/mu-opioid, Fluo-4 calcium, dose response (AID 434942); format: functional;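 note: potency of inhibitors blocking the TRPC4 calcium response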
T2 sequence (Q9QUQ5 whole entry): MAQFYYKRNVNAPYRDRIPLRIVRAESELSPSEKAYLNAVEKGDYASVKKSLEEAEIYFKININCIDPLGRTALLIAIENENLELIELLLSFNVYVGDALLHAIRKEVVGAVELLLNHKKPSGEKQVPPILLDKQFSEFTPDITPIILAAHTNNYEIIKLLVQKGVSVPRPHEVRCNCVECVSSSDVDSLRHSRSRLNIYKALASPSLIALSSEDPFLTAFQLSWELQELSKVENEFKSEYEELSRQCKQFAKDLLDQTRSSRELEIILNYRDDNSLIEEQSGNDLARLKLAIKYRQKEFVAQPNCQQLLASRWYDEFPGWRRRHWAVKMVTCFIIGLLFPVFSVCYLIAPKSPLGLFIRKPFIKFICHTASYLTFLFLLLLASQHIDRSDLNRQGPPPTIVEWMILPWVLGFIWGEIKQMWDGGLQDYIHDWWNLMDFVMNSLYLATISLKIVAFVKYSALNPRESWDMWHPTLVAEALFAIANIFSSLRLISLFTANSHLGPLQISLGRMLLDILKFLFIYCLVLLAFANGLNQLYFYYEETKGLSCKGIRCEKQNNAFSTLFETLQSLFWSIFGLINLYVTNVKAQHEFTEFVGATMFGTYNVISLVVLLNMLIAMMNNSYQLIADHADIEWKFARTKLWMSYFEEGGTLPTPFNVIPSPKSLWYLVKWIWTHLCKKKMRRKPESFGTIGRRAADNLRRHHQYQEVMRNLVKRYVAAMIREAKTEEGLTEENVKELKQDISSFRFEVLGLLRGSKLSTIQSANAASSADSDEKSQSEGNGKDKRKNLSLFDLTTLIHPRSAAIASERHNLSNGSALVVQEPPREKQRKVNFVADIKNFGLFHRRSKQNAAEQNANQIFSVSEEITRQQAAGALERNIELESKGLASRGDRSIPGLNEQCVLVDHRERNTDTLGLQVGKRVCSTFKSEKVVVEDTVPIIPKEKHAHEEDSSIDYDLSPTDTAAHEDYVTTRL

[14] = molecular target: FAD-linked sulfhydryl oxidase ALR (Homo sapiens, UniProt P55789); assay: ALR-catalysed DTT oxidation blockers – biochemical, H2O2 detection, luminescence, cherry-pick, dose response (AID 493248)
INS1 = assay: INS-1E survival protection against cytokine death – cell-based, luminescence, retest, dose response (AID 449756); format: functional; conditions: Rattus norvegicus;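 note: cell death triggered by IL-1 beta plus TNF-alpha plus IFN-gamma mixture; protective hits raise ATP signal compared with cytokine alone wells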
[15] = NIH3T3 cell viability loss – ATP luminescence, mouse fibroblasts, counter-screen, dose response (AID 2010); format: functional, cell-based;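 note: cells exposed to compound for about 90 hours before reading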
[16] = Trypanosoma cruzi growth suppression in host cells – NIH3T3 host cells, beta-gal luminescence, confirmation (AID 2044); format: functional, cell-based;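 note: intracellular parasites grown in NIH/3T3 mouse fibroblasts as host cells; luminescent beta-galactosidase reporter signal from transgenic T. cruzi replicating inside host cells; inhibitors lower the luminescence signal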
[17] = molecular target: T3, Microphthalmia-associated transcription factor (Homo sapiens, UniProt O75030); assay: reducers of TRPM1 reporter luminescence, concentration series – cell-based, SK-MEL-5, cherry-picked, set 3, MITF inhibitor project, dose response (AID 493073); format: functional;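 note: SK-MEL-5 melanoma cells with luciferase driven by the MITF target TRPM1 promoter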
T3 sequence (O75030 whole entry): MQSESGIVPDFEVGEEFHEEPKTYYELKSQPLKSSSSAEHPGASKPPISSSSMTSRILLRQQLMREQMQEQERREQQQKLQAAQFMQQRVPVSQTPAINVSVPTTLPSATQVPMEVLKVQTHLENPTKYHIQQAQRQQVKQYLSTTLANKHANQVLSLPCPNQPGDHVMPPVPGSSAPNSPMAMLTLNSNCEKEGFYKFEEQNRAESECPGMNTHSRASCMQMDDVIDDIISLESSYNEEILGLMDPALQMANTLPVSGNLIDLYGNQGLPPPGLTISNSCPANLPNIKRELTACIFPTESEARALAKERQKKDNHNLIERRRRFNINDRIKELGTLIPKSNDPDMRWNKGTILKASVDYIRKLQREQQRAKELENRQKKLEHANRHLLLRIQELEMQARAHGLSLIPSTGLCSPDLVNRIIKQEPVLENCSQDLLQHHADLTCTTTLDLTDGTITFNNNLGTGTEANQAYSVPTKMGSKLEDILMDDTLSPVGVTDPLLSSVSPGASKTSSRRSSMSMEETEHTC

cells [18] = assay: cells
cells [19] = format: functional
Vero [20] = assay: cells; format: functional; conditions: Chlorocebus sabaeus
[21] = molecular target: Peroxisome proliferator-activated receptor gamma/Nuclear receptor coactivator 2 (Homo sapiens, UniProt P37231); assay: (§1) TR-FRET dose response biochemical High Throughput Screening assay for agonists of the steroid receptor coactivator 2 (SRC-2) recruitment by the peroxisome proliferator-activated receptor gamma (PPAR gamma): non-selective agonists. [Related pubchem assays: 1297, 1032 ]; format: functional
[22] = molecular target: Peroxisome proliferator-activated receptor gamma/Nuclear receptor coactivator 3 (Homo sapiens, UniProt P37231); assay: as §1, with “3 (SRC-3)” for “2 (SRC-2)”, “1301 (Confirmation screen.), 1048 (Primary screen.)]” for “1297, 1032 ]”; format: functional
[23] = molecular target: Peroxisome proliferator-activated receptor gamma/Nuclear receptor coactivator 1 (Homo sapiens, UniProt P37231); assay: as §1, with “1 (SRC-1)” for “2 (SRC-2)”, “assays (depositor defined):AID1300, AID1808, AID504735, AID631]” for “assays: 1297, 1032 ]”; format: protein assay

Sequence of Genome polyprotein (P29990 2492-3391 limits assumed): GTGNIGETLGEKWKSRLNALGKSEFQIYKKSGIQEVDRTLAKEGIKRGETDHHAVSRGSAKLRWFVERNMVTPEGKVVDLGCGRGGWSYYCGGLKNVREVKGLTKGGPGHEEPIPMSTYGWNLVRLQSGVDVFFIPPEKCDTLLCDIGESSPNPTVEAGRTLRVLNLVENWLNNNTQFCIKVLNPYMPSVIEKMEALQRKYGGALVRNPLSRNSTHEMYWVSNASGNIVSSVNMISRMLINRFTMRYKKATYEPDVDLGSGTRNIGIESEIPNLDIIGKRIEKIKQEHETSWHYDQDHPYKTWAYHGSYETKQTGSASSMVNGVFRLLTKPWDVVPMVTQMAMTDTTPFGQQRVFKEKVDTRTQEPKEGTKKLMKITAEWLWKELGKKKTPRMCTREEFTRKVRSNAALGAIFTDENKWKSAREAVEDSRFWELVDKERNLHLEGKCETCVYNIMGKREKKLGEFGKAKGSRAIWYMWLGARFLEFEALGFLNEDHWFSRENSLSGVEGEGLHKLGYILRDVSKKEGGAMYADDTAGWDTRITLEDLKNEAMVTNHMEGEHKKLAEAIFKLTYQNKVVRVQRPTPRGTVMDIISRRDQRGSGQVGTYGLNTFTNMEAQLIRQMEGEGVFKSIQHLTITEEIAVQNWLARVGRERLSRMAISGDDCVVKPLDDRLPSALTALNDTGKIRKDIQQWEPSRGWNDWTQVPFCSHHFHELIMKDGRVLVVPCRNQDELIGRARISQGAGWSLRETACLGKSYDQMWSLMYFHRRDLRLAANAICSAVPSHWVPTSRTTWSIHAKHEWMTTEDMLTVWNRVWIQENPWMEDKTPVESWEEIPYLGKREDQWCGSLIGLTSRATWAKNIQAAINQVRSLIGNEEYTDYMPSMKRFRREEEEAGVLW
Sequence of FAD-linked sulfhydryl oxidase ALR (P55789 whole entry): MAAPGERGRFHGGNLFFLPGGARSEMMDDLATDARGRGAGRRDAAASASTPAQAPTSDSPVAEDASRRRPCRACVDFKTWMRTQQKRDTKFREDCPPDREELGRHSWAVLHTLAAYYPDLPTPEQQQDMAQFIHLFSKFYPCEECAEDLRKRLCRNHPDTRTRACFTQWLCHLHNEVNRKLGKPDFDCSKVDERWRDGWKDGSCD
Sequence of Alkaline phosphatase, placental type (P05187 whole entry): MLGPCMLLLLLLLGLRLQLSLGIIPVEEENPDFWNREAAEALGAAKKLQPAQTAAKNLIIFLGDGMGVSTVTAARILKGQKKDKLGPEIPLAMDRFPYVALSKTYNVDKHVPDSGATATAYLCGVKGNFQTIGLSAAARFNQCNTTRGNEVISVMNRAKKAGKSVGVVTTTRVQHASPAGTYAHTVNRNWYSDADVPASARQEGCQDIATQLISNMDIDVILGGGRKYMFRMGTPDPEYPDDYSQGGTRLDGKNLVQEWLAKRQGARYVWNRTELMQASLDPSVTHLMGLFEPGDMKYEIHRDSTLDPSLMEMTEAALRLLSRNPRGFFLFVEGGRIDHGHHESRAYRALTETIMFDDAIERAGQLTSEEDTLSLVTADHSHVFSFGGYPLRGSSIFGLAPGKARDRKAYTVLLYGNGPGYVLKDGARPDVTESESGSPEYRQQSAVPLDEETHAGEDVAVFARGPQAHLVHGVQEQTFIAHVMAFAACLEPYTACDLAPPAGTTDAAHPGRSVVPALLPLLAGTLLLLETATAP
Sequence of Peroxisome proliferator-activated receptor gamma/Nuclear receptor coactivator 3 (P37231 whole entry): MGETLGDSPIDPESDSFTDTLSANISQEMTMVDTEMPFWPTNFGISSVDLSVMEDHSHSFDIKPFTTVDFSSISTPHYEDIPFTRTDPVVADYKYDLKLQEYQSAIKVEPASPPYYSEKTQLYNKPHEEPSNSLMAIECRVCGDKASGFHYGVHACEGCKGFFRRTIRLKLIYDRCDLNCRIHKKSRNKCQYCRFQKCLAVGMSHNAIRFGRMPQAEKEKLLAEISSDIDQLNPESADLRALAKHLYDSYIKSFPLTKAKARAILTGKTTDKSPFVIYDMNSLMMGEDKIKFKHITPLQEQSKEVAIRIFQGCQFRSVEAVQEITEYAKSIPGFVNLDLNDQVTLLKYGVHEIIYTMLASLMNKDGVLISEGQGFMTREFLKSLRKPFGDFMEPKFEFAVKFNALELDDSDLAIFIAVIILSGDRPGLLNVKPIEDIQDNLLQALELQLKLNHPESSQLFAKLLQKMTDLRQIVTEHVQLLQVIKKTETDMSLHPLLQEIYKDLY
Sequence of Peroxisome proliferator-activated receptor gamma/Nuclear receptor coactivator 3 (Q9Y6Q9 whole entry, further chain): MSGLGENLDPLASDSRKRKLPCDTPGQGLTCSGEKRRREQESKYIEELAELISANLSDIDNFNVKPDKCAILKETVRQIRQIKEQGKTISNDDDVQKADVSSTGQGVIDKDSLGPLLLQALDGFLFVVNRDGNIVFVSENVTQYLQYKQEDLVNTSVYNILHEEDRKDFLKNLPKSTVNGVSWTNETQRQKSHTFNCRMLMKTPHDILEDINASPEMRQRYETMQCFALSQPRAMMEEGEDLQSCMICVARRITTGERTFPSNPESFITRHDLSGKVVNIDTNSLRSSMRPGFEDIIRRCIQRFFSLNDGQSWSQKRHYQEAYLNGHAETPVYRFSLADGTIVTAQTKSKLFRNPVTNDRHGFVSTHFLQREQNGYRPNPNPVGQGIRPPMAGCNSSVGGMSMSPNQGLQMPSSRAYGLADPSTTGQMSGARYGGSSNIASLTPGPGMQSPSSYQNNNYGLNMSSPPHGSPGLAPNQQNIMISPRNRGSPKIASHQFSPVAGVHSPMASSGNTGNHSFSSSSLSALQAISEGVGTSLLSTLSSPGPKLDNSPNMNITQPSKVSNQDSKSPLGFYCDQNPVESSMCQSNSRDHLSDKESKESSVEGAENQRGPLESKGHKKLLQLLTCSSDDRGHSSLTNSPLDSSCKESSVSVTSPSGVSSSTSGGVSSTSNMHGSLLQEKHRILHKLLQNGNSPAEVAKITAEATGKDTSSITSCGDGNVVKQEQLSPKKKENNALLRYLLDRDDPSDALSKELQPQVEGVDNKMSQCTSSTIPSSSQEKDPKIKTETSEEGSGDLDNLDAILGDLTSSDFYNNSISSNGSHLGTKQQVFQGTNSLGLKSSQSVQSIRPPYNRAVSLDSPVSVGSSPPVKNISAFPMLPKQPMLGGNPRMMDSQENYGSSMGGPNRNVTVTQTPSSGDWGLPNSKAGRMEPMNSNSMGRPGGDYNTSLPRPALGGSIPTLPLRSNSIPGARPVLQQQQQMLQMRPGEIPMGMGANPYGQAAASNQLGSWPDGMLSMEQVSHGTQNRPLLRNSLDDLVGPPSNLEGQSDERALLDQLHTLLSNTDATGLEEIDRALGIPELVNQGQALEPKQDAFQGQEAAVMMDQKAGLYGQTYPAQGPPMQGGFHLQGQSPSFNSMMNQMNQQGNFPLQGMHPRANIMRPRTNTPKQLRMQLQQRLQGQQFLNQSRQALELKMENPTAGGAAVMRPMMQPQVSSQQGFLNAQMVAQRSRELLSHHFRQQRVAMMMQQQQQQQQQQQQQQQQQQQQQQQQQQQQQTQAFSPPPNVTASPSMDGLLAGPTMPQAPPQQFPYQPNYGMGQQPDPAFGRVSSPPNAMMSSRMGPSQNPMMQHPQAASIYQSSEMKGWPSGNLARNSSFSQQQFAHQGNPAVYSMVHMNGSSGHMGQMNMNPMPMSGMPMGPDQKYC

**Q.** What does the source list for `COc1cccc(-c2cc(O)c3cc(NC(=O)c4ccc(N(C)C)cc4)ccc3n2)c1`?
**A.** IC50 [1]: > 80 µM (inactive); EC50 [2]: 0.296 µM (active); EC50 [3]: 1.24 µM (active); EC50 (BJ [4]): 0.664 µM (active); EC50 [5]: 0.599 µM (active); EC50 (BJ [6]): 0.729 µM (inconclusive); EC50 [7]: 0.334 µM (active); AC50 [8]: 0.477 µM (active)

**Q.** Which EC50 [9] does the source give for `Cc1ccsc1/C=N/Nc1ccc(C(=O)O)cc1` here?
**A.** > 50 µM (active)

**Q.** For `CCc1nccn1CC(=O)c1ccc(O)c(O)c1`, which IC50 [10] is on record?
**A.** 3.73 µM (active)

**Q.** And the IC50 [11]?
**A.** 62.5 µM (active)

**Q.** Which IC50 (Vero [12]) does the source give for `CC(=O)Nc1ccc(CCNC(=O)c2ccc3ccccc3c2O)cc1` here?
**A.** > 25 µM (active)

**Q.** For `CCCC1(c2ccccc2)NC(=O)N(CC(=O)Nc2ccccc2C(F)(F)F)C1=O` (configuration not stated), which EC50 [9] is on record?
**A.** > 50 µM (active)

**Q.** For `Cc1cc(C)cc(NC(=O)c2cc(C)n(Cc3cccs3)c2C)c1`, which IC50 [1] is on record?
**A.** > 80 µM (inactive)

**Q.** What does the source list for `COc1cccc(/C=C2\SC(=S)N(NS(=O)(=O)c3ccc(C)cc3)C2=O)c1OC`?
**A.** IC50 (Genome polyprotein): 36.2 µM (active); EC50 [13]: 8.41 µM (active); AC50 [14]: 9.05 µM (active)

**Q.** For `c1ccc(CN2CCN(Cc3c[nH]c4ccccc34)CC2)cc1`, which EC50 [13] is on record?
**A.** 5.96 µM (active)

**Q.** And the AC50 (INS1)?
**A.** 8.01 µM (active)

**Q.** And the EC50 [15]?
**A.** > 30 µM (not active)

**Q.** And the EC50 [16]?
**A.** 0.277 µM (active)

**Q.** With `Cc1ccc(OCC(=O)N/N=C/c2ccc([N+](=O)[O-])o2)cc1` as the molecule, how does the EC50 [9] read?
**A.** > 50 µM (active)

**Q.** What about the AC50 [17] of the same molecule?
**A.** 8.9 µM (active)

**Q.** And the EC50 (cells [18])?
**A.** 0.078 µM (active)

**Q.** What about the IC50 (cells [19]) of the same molecule?
**A.** 3.01 µM (active)

**Q.** What about the EC50 [15] of the same molecule?
**A.** > 60 µM (not active)

**Q.** What about the EC50 [16] of the same molecule?
**A.** < 0.1 µM (active)

**Q.** Which CC50 (Vero [20]) does the source give for `CC(=O)/C=C1/C(=O)Nc2ccccc21` here?
**A.** 21.9 µM (active)

**Q.** What about the IC50 (Vero [12]) of the same molecule?
**A.** > 25 µM (active)

**Q.** Which EC50 [21] does the source give for `O=C(CSc1ncnc2c1oc1ccccc12)Nc1cccc(C(F)(F)F)c1` here?
**A.** 23 µM (not active)

**Q.** What about the EC50 [22] of the same molecule?
**A.** > 79.4 µM (not active)

**Q.** And the EC50 [23]?
**A.** > 79.4 µM (inactive)

Source: ChEMBL document CHEMBL1201862, “PubChem BioAssay data set” (2004)
